Measurements: patent US6207393A, “Inhibition of intracellular signal transduction by 14-3-3-binding peptides” (Washington University, priority 1999, dated 2001)
Read-outs that look alike come from different tables or passages of the source. Where a SMILES comes first, the peptide text is derived from it. [ ]: non-standard residue; d: D form. pS = N[C@@H](COP(=O)(O)O)C(=O)O

Biological target: T1, 14-3-3 zeta (Homo sapiens, UniProt P63104)
T1 construct: made in house; host or cells: E. coli DH5α (vector pGEX-KT)
T1 sequence (P63104 1-245): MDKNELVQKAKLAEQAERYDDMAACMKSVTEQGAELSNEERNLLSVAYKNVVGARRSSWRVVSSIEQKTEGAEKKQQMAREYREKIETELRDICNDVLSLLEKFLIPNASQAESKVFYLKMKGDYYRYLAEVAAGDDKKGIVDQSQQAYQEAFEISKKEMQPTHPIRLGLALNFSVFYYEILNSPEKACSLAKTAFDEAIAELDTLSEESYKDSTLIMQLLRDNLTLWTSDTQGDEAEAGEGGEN
Assay: Displacement of 32P-labeled phosphorylated Raf-259 peptide from immobilized GST/14-3-3 zeta (scintigraphy)
Type: binding
Procedure: The 14-3-3 protein isoforms for use in binding studies with the above peptides were prepared as proteins fused with glutathione-S-transferase (GST) and immobilized to glutathione agarose beads. GST/14-3-3 fusion proteins were made by generating BamHI and EcoRI restriction endonuclease sites (underlined) at the 5' and 3' ends respectively of the 14-3-3 cDNAs by polymerase chain reaction (PCR) using the following isoform sequence specific pairs of primers: 14-3-3 beta, […] (SEQ ID NO: 11), […] (SEQ ID NO: 12); 14-3-3 eta […] (SEQ ID NO: 13), […] (SEQ ID NO: 14); 14-3-3 tau […] (SEQ ID NO: 15), […] (SEQ ID NO: 16); 14-3-3 zeta […] (SEQ ID NO: 17), […] (SEQ ID NO: 18). The cDNA products were digested with BamHI and EcoRI, subcloned into the vector pGEX-KT (Guan and Dixon, Anal Biochem 192: 262-7, 1991 which is incorporated by reference). The vector was used to transform the DH5α strain of E. Coli. GST-14-3-3 fusion protein expression in log-growth phase bacterial cultures was accomplished by induction with 100 μM isopropyl β-D-thiogalactopyranoside (IPTG; Gold Biotechnology, St. Louis) for 4 hours. Cells were disrupted by sonication and lysates, containing 1% Triton X-100, were incubated with glutathione agarose beads (Sigma, St. Louis) at 4° C. overnight. Fusion proteins were eluted by incubation with 10 mM reduced glutathione (Sigma, St. Louis) in phosphate buffered saline for 1 hour at room temperature, dialyzed in phosphate buffered saline and quantitated by Coomassie staining SDS polyacrylamine gels compared against bovine serum albumin standards.
The Raf-259 peptide (SEQ ID NO: 4) was phosphorylated in vitro using protein kinase A (PKA) and [^32 P]-γ-ATP following the manufacturers instruction (PKA, New England Biolabs) with 20 μCi of [^32 P]-γ-ATP (NEN-Dupont, 6000 Ci/mmol). The efficiency of phosphorylation was calculated to be between 7 and 12% based upon the specific activity of the labelled peptide.
The labeled peptide was then incubated with immobilized 14-3-3 zeta fusion protein and binding of the labelled peptide was measured. […] Binding was also sequence specific. […]

In the case of `CC(C)C[C@H](N)C(=O)N[C@@H](CO)C(=O)N[C@@H](CCC(N)=O)C(=O)N[C@@H](CCCNC(=N)N)C(=O)N[C@@H](CCC(N)=O)C(=O)N[C@@H](CCCNC(=N)N)C(=O)N[C@@H](CO)C(=O)N[C@H](C(=O)N[C@@H](COP(=O)(O)O)C(=O)N[C@H](C(=O)N1CCC[C@H]1C(=O)N[C@@H](CC(N)=O)C(=O)N[C@H](C(=O)N[C@@H](Cc1c[nH]cn1)C(=O)N[C@@H](C)C(=O)O)C(C)C)[C@@H](C)O)[C@@H](C)O` [pS-Raf-259] (H-LSQRQRST[pS]TPNVHA-OH), the IC50 (corrected for 7-12% efficiency of in vitro phosphorylation, read-out: true IC50) is reported as 70 to 240 nM and the IC50 (not corrected for efficiency of phosphorylation, read-out: IC50) is reported as 1000 to 2000 nM.
